From ChEMBL document CHEMBL3991601, “The target landscape of clinical kinase drugs” (Science, 2017)
The source made the active and inactive calls. For most assays here, no stated cut-off is given here; in the data, actives have a measured Kd and inactives only a lower limit.

Columns and labels:
[1] = target: Calcium/calmodulin-dependent protein kinase kinase 2 (Homo sapiens, UniProt Q96RR4)
[2] = target: Cyclin-dependent kinase 1 (Homo sapiens, UniProt P06493)
[3] = target: Eukaryotic translation initiation factor 2-alpha kinase 1 (Homo sapiens, UniProt Q9BQI3)
Heme oxygenase 2 = target: T1, Heme oxygenase 2 (Homo sapiens, UniProt P30519)
T1 sequence (P30519 whole entry): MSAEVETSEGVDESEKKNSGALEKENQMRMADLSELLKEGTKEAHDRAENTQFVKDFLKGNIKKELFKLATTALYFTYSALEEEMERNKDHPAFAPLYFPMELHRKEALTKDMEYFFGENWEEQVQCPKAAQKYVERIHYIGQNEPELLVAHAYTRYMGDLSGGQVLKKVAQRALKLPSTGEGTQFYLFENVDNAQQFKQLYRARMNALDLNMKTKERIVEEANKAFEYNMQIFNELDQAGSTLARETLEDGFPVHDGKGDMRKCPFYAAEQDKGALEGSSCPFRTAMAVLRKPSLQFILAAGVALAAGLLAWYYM

[4] = target: T2, Dual specificity mitogen-activated protein kinase kinase 3 (Homo sapiens, UniProt P46734)
T2 sequence (P46734 whole entry): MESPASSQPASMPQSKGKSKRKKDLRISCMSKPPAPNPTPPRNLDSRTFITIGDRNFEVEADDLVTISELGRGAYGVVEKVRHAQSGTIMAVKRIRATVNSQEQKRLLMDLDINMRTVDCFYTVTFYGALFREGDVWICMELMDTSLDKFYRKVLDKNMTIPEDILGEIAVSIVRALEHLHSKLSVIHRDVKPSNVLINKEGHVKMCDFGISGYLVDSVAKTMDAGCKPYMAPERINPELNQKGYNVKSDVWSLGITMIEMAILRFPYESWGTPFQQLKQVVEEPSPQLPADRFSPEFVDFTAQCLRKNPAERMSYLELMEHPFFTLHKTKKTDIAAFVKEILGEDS

[5] = target: T3, MAP kinase-activated protein kinase 5 (Homo sapiens, UniProt Q8IW41)
T3 sequence (Q8IW41 whole entry): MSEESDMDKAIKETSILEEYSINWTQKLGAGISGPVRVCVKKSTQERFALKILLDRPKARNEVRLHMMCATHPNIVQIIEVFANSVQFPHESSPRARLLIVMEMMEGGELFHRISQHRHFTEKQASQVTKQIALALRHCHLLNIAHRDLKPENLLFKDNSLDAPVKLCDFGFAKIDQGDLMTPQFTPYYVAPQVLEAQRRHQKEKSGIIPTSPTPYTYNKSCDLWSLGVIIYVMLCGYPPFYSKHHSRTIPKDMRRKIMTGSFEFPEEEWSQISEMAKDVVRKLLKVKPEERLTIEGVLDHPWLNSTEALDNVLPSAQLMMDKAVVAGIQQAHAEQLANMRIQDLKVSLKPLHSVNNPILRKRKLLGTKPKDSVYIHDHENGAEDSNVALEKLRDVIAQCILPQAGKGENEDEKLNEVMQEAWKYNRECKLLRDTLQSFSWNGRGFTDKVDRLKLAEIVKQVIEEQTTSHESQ

[6] = target: T4, RNA cytidine acetyltransferase (Homo sapiens, UniProt Q9H0A0)
T4 sequence (Q9H0A0 whole entry): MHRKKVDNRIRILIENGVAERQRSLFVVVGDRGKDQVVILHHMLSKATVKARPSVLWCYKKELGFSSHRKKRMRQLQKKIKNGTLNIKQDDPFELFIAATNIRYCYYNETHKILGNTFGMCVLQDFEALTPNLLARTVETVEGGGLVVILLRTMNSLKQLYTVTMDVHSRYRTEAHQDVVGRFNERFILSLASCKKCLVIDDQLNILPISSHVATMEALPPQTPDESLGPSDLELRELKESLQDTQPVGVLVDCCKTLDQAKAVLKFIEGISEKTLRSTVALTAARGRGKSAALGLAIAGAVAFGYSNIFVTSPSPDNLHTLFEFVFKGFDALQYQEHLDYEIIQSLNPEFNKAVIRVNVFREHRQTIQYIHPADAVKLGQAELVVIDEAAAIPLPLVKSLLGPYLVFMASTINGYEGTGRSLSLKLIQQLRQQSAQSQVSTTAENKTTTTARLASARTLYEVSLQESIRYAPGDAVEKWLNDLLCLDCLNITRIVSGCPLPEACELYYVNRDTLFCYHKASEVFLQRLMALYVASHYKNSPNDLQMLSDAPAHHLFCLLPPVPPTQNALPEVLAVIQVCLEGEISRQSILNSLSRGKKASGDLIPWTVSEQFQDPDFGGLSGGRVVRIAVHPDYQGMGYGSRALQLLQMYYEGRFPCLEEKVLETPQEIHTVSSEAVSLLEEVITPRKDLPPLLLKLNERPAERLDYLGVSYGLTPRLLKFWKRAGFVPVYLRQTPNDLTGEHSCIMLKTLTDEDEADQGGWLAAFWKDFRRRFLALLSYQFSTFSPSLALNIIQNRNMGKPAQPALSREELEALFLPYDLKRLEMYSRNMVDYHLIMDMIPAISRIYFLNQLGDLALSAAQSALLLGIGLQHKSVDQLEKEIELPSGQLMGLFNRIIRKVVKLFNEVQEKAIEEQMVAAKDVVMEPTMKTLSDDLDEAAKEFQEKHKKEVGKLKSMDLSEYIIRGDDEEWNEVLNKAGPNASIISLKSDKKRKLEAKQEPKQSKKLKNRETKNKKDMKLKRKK

[7] = target: High affinity nerve growth factor receptor (Homo sapiens, UniProt P04629)
[8] = target: Serine/threonine-protein kinase SIK2 (Homo sapiens, UniProt Q9H0K1)
[9] = target: DNA topoisomerase 2-alpha (Homo sapiens, UniProt P11388)
[10] = target: Mitogen-activated protein kinase kinase kinase 20 (Homo sapiens, UniProt Q9NYL2)
[11] = target: Casein kinase I isoform epsilon (Homo sapiens, UniProt P49674)
[12] = target: Serine/threonine-protein kinase 16 (Homo sapiens, UniProt O75716)
[13] = target: Glycogen synthase kinase-3 beta (Homo sapiens, UniProt P49841)
Sequence of Glycogen synthase kinase-3 beta (P49841 whole entry): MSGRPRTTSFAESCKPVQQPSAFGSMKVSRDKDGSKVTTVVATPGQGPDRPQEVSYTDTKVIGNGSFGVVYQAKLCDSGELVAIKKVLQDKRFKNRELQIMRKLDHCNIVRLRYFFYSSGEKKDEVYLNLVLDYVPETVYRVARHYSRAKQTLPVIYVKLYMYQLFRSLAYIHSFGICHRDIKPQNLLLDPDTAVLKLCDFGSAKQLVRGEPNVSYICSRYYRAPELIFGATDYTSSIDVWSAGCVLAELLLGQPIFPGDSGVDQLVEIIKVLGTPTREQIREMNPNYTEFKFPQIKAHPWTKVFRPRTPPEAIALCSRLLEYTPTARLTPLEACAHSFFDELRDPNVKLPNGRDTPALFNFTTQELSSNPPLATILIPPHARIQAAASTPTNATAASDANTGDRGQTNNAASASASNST

Sequence of Casein kinase I isoform epsilon (P49674 whole entry, canonical isoform): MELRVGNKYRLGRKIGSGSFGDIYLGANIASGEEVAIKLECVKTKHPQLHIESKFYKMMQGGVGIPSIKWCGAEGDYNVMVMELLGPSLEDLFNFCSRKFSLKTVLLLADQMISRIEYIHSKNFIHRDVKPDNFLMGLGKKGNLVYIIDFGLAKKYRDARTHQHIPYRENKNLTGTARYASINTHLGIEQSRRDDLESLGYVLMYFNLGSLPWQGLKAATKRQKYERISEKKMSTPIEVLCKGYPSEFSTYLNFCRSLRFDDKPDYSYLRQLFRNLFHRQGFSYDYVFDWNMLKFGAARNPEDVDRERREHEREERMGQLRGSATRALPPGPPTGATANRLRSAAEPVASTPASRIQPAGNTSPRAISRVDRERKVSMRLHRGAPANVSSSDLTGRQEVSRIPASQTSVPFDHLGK
Sequence of DNA topoisomerase 2-alpha (P11388 whole entry): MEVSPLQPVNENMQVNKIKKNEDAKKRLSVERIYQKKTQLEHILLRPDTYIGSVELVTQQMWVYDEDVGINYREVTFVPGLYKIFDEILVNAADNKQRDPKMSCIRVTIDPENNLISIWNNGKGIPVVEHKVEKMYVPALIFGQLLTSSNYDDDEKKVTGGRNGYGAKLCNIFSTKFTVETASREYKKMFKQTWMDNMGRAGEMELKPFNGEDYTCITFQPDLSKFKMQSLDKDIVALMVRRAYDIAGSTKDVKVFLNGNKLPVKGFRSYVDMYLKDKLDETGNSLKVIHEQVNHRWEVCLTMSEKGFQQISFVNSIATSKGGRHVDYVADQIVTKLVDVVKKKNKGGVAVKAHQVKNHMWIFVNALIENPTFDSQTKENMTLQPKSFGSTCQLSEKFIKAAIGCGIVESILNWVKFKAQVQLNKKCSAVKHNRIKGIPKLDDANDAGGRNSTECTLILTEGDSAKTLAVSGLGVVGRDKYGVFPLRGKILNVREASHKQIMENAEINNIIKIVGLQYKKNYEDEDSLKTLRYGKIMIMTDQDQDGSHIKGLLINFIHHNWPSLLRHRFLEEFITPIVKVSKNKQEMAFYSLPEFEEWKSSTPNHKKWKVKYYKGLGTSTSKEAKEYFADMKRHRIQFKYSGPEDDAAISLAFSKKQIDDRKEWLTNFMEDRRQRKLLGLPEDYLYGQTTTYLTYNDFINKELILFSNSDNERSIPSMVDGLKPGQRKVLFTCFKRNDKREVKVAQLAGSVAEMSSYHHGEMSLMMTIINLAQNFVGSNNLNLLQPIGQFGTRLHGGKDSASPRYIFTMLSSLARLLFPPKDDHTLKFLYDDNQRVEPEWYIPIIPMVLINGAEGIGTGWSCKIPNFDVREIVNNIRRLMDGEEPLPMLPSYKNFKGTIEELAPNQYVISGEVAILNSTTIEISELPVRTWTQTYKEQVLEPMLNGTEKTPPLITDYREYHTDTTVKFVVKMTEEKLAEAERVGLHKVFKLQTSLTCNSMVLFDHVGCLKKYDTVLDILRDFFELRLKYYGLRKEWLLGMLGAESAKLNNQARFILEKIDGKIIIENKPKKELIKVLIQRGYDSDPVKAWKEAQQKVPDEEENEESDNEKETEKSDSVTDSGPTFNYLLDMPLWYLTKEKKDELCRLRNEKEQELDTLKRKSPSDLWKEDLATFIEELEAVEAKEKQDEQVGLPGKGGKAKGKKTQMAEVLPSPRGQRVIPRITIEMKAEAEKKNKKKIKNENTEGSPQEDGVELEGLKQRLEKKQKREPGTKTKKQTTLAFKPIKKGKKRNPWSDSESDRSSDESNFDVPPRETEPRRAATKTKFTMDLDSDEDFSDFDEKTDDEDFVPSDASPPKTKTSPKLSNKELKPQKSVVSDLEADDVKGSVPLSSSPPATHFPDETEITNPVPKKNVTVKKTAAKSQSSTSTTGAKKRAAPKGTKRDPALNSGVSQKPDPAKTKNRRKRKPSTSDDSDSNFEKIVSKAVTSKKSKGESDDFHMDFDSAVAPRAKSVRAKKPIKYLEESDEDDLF
Sequence of Serine/threonine-protein kinase 16 (O75716 whole entry): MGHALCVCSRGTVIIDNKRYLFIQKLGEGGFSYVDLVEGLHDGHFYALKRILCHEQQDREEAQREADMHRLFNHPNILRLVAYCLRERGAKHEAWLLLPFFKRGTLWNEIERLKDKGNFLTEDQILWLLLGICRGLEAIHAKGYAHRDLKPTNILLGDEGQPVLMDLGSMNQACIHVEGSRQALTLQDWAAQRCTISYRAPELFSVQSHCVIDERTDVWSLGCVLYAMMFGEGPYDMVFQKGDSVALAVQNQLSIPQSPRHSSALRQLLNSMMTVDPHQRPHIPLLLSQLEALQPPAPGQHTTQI
Sequence of Mitogen-activated protein kinase kinase kinase 20 (Q9NYL2 whole entry, canonical isoform): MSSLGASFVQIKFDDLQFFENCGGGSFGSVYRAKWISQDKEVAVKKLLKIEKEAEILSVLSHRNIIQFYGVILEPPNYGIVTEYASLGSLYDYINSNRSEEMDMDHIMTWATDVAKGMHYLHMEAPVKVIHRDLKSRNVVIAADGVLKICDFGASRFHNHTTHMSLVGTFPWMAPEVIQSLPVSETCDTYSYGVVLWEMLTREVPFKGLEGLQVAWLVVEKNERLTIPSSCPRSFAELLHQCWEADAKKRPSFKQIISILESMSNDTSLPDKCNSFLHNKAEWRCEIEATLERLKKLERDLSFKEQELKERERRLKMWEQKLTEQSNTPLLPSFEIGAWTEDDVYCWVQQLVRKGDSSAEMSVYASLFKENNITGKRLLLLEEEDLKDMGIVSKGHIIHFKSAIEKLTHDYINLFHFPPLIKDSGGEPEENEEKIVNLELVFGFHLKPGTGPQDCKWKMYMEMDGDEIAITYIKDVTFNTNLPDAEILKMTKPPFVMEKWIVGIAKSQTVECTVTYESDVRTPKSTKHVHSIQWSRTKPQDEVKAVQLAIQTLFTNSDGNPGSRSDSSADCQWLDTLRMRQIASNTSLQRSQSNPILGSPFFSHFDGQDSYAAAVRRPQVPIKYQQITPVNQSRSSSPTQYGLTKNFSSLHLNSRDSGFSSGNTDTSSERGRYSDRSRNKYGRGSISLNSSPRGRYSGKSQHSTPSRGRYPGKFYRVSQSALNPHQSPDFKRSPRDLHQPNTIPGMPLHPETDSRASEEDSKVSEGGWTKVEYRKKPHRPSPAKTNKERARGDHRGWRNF
Sequence of Calcium/calmodulin-dependent protein kinase kinase 2 (Q96RR4 whole entry): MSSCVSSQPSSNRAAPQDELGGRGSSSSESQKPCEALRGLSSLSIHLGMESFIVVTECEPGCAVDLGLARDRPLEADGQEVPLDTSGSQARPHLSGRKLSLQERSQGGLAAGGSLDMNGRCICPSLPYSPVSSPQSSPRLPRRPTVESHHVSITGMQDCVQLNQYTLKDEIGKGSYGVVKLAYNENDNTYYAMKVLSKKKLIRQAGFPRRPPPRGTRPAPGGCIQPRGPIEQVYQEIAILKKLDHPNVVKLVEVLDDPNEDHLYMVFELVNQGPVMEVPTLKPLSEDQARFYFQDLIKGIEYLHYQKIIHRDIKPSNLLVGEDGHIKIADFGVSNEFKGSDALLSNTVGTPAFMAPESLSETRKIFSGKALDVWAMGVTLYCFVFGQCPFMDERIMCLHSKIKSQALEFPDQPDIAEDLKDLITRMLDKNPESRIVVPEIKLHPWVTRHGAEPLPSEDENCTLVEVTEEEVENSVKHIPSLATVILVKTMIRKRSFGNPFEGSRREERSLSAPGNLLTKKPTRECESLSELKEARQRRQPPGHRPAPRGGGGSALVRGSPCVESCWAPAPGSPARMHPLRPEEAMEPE
Sequence of High affinity nerve growth factor receptor (P04629 whole entry): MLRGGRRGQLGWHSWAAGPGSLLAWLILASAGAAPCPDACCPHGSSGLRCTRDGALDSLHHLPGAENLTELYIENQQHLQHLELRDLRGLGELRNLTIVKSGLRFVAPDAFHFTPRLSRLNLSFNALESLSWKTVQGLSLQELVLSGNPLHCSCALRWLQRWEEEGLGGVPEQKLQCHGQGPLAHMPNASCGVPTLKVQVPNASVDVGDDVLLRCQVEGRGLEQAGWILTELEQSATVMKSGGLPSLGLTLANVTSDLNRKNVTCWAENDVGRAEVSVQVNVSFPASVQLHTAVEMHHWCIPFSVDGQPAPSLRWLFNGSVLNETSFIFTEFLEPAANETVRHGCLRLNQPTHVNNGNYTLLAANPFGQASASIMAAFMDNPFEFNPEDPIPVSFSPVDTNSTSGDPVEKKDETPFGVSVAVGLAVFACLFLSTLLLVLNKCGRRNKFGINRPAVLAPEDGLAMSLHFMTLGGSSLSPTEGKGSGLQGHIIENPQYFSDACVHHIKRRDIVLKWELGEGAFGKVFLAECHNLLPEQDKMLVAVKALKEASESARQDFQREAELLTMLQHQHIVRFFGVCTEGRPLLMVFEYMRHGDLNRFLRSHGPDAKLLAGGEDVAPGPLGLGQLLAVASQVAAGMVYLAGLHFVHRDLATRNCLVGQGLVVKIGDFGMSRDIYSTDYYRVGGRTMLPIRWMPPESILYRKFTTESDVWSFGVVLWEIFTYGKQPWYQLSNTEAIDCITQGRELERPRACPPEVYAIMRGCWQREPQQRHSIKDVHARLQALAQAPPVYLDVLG

SMILES | Kd [1] | Kd [2] | Kd [3] | Kd (Heme oxygenase 2) | Kd [4] | Kd [5] | Kd [6] | Kd [7] | Kd [8] | Kd [9] | Kd [10] | Kd [11] | Kd [12] | Kd [13]
CC(=O)c1cnc2ccc(-c3cc(Cl)c(O)c(Cl)c3)nc2c1N[C@H]1CC[C@H](CN(C)C)CC1 | 0.126 µM (active) | 0.288 µM (active) | > 30 µM (inactive) | > 30 µM (inactive) | > 30 µM (inactive) | 0.272 µM (active) | > 30 µM (inactive) | > 30 µM (inactive) | 0.24 µM (active) | > 30 µM (inactive) | 0.101 µM (active) |  |  | 
Cc1nc2cc(-c3nn(C(C)C)c4ncnc(N)c34)ccc2o1 | > 30 µM (inactive) | > 30 µM (inactive) | > 30 µM (inactive) | > 30 µM (inactive) | > 30 µM (inactive) | > 30 µM (inactive) | > 30 µM (inactive) | > 30 µM (inactive) | > 30 µM (inactive) | > 30 µM (inactive) | > 30 µM (inactive) | 0.158 µM (active) | 2.01 µM (active) | 
COc1c(OCCCN2CCOCC2)ccc2c1N=C(NC(=O)c1cnc(N)nc1)N1CCN=C21 [COPANLISIB] | > 30 µM (inactive) | > 30 µM (inactive) | > 30 µM (inactive) | > 30 µM (inactive) | > 30 µM (inactive) | > 30 µM (inactive) | > 30 µM (inactive) | > 30 µM (inactive) | > 30 µM (inactive) |  | > 30 µM (inactive) | > 30 µM (inactive) | > 30 µM (inactive) | > 30 µM (inactive)
O=C(Nc1nc2cccc(-c3ccc(CN4CCS(=O)(=O)CC4)cc3)n2n1)C1CC1 [FILGOTINIB] | 3.63 µM (active) | > 30 µM (inactive) | > 30 µM (inactive) | > 30 µM (inactive) | > 30 µM (inactive) | > 30 µM (inactive) | > 30 µM (inactive) | > 30 µM (inactive) | > 30 µM (inactive) |  | > 30 µM (inactive) | > 30 µM (inactive) | > 30 µM (inactive) | > 30 µM (inactive)
O=C(Nc1cc(C(F)(F)F)cc(C(F)(F)F)c1)c1cc(Cl)ccc1O [IMD-0354] | > 30 µM (inactive) |  | > 30 µM (inactive) | > 30 µM (inactive) | > 30 µM (inactive) | > 30 µM (inactive) | > 30 µM (inactive) | > 30 µM (inactive) | > 30 µM (inactive) | > 30 µM (inactive) | > 30 µM (inactive) | > 30 µM (inactive) | > 30 µM (inactive) | > 30 µM (inactive)
CNC(=O)c1nn(C)c2c1C(C)(C)Cc1cnc(Nc3ccc(N4CCN(C)CC4)cc3)nc1-2 [MILCICLIB] |  | > 30 µM (inactive) | > 30 µM (inactive) | > 30 µM (inactive) | > 30 µM (inactive) | > 30 µM (inactive) | > 30 µM (inactive) | 2.96 µM (active) | 0.11 µM (active) |  | > 30 µM (inactive) |  | 1.1 µM (active) | > 30 µM (inactive)
Cn1cc(-c2cnc3ccc4ccc(CS(=O)(=O)NCc5ccccn5)cc4c(=O)c3c2)cn1 [MK-8033] | > 30 µM (inactive) | > 30 µM (inactive) | > 30 µM (inactive) | > 30 µM (inactive) | > 30 µM (inactive) | > 30 µM (inactive) | > 30 µM (inactive) | > 30 µM (inactive) | > 30 µM (inactive) |  | > 30 µM (inactive) | > 30 µM (inactive) | > 30 µM (inactive) | > 30 µM (inactive)
CCOc1cc2ncc(C#N)c(Nc3ccc(F)c(Cl)c3)c2cc1NC(=O)/C=C/CN(C)C [PELITINIB] | 1.39 µM (active) | > 30 µM (inactive) | > 30 µM (inactive) | > 30 µM (inactive) | > 30 µM (inactive) | > 30 µM (inactive) | > 30 µM (inactive) | > 30 µM (inactive) |  | > 30 µM (inactive) | 0.875 µM (active) | 1.48 µM (active) | > 30 µM (inactive) | > 30 µM (inactive)
CCCCCCCCCCCCCCCCCCOP(=O)([O-])OC1CC[N+](C)(C)CC1 [PERIFOSINE] | > 30 µM (inactive) | > 30 µM (inactive) | > 30 µM (inactive) | > 30 µM (inactive) | > 30 µM (inactive) | > 30 µM (inactive) | > 30 µM (inactive) | > 30 µM (inactive) | > 30 µM (inactive) |  | > 30 µM (inactive) | > 30 µM (inactive) | > 30 µM (inactive) | > 30 µM (inactive)
Cn1cc(-c2cnn3c(N)c(Br)c([C@@H]4CCCNC4)nc23)cn1 [SCH-900776] | > 30 µM (inactive) | > 30 µM (inactive) | > 30 µM (inactive) | > 30 µM (inactive) | > 30 µM (inactive) | > 30 µM (inactive) | > 30 µM (inactive) | > 30 µM (inactive) | 0.27 µM (active) |  | > 30 µM (inactive) | > 30 µM (inactive) | > 30 µM (inactive) | > 30 µM (inactive)
CCS(=O)(=O)c1cccc(-c2cc(C(=O)NC3CCN(C)CC3)c(C)c3[nH]c4ncc(C)cc4c23)c1 [TAK-901] | > 30 µM (inactive) | > 30 µM (inactive) | > 30 µM (inactive) | > 30 µM (inactive) | > 30 µM (inactive) | > 30 µM (inactive) | > 30 µM (inactive) | 0.843 µM (active) | 0.115 µM (active) |  | > 30 µM (inactive) | > 30 µM (inactive) | 0.849 µM (active) | 6.17 µM (active)
CC(C)c1cc(CNc2nc(Nc3cc(C4CC4)[nH]n3)cc(N3CCN(C)CC3)n2)on1 [XL-228] | 2.34 µM (active) | > 30 µM (inactive) |  | > 30 µM (inactive) | > 30 µM (inactive) | > 30 µM (inactive) | > 30 µM (inactive) | 0.006 µM (active) | 1.8 µM (active) | > 30 µM (inactive) | > 30 µM (inactive) | > 30 µM (inactive) | > 30 µM (inactive) | > 30 µM (inactive)
